The values that follow come from article PMC5513871 (British Journal of Pharmacology, 2017).

SMILES strings stand for the structures. Read-outs that look alike come from different tables or passages of the source.

In one data set the test system is anaesthetized SR dogs. Particulars: 4 mg/kg/40 min, at 40 min; ref Yokoyama et al. (2009); cited from earlier work.
Data set [1] concerns normal dogs under anaesthesia. The conditions noted are these: 1 μmol/kg/min; ref Roza and Berman, 1971; cited from earlier work.
The test system of the next data set is AF goat model. The conditions noted are these: cited from earlier work.
Another data set concerns cAVB dogs. In words: Proarrhythmia test. Format: in vivo, dog. The conditions noted are these: cAVB dogs n = 9, paced 1 Hz; PA‐6 2.5 mg/kg/10 min, dofetilide 0.025 mg/kg/5 min.
The next data set has as its system IK1. The conditions noted are these: read-out: IC50 IK1; ref Filgueiras‐Rama et al., 2012; cited from earlier work.
In data set [2] the test system is Langendorff‐perfused sheep heart. Particulars: ref Noujaim et al., 2011; cited from earlier work.
Another data set relates to IKACh. Particulars: read-out: IC50 IKACh; ref Filgueiras‐Rama et al., 2012; cited from earlier work.
For the next data set, the system named is IKATP. Particulars: read-out: IC50 IKATP; ref Filgueiras‐Rama et al., 2012; cited from earlier work.
Setting [3] is: awake goats, 1 week of AF, ref Eijsbouts et al., 2006.
The mark [4] stands for this setting: awake goats, 4 weeks of AF, ref Eijsbouts et al., 2006.
[5] abbreviates: awake goats, 8 weeks of AF, ref Eijsbouts et al., 2006.
[6] abbreviates: awake goats, 16 weeks of AF, ref Eijsbouts et al., 2006.

With `N=C(N)c1ccc(OCCCCCOc2ccc(C(=N)N)cc2)cc1` [pentamidine], the QTc increase result in the data set with anaesthetized SR dogs is given as “approx. 8%”.

For `[Ba+2].[Cl-].[Cl-]` [BaCl2], the “Course of events upon infusion” value in data set [1] is “hypotension, flaccid paralysis of skeletal muscles, ventricular tachycardia and fibrillation”.

In the case of `O=C(NCC1CCCCN1)c1cc(OCC(F)(F)F)ccc1OCC(F)(F)F` (stereo not shown) [flecainide], the Cardioversion rate with AF goat model (setting [3]) is given as 60%; with AF goat model (setting [4]) it was 33%; in the data set on AF goat model (setting [5]), 33%; in the data set on AF goat model (setting [6]) it was 17%.

Take `c1ccc(C2(c3ccccc3)CC2C2=NCCN2)cc1` (stereo not shown) [cibenzoline]: the Cardioversion rate in the data set with AF goat model (3 to 4 weeks of pacing induced persistent AF, ref Eijsbouts et al., 2006) is 78%; in the data set on AF goat model (setting [3]), 80%; in the data set with AF goat model (setting [4]), 78%; in the data set on AF goat model (setting [5]), 67%; with AF goat model (setting [6]), 63%.

Regarding `CC(C)NC[C@@H](O)c1ccc(NS(C)(=O)=O)cc1` [d‐Sotalol], the Cardioversion rate in the data set with AF goat model (3 to 4 weeks of pacing induced persistent AF, ref Wijffels et al., 1999) is given as 92%.

Turning to `CN(CCOc1ccc(NS(C)(=O)=O)cc1)CCc1ccc(NS(C)(=O)=O)cc1` [dofetilide], in the data set with cAVB dogs, the LVMAPD80 worked out at 400 ± 64 ms, the QTc is reported as 600 ± 33 ms and the STV is reported as 1.82 ± 0.88 ms.

As to `CCN(CC)CCCC(C)Nc1ccnc2cc(Cl)ccc12` (stereo not shown) [chloroquine], the 50% inhibitory concentration (IC50) with IK1 was 0.69 µM; in the data set with IKACh it was 0.38 µM; with IKATP, 0.51 µM. In data set [2], the “Concentration terminating cholinergically induced AF” value was 10 µM.
